Experimental findings from ChEMBL document CHEMBL1201862, “PubChem BioAssay data set” (2004) are described below.

The source made the active and inactive calls. Where only a bound is given, the exact number is not on record here.

The target of assay [1] is 5-hydroxytryptamine receptor 2A (Mus musculus, UniProt P35363). It is filed as functional, cell-based.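 Further: CHO-K1 cells with tagged receptor and beta-arrestin; agonist potency measured as compound-induced activation of the receptor.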
The target in assay [2] is Mu-type opioid receptor (Homo sapiens, UniProt P35372). The format is functional, cell-based.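 Further: U2OS cells with beta-arrestin recruitment to OPRM1 by beta-gal complementation.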
The target of assay [3] is T1, Low molecular weight phosphotyrosine protein phosphatase (Homo sapiens, UniProt P24666).
T1 sequence (P24666 whole entry): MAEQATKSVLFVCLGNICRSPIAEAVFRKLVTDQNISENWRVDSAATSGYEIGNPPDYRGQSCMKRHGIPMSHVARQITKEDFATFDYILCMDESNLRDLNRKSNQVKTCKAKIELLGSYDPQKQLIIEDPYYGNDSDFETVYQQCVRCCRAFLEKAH
It is filed as functional. Conditions: read-out: IC50_Mean.

Assay [4] has as its target T1, Low molecular weight phosphotyrosine protein phosphatase. It is filed as functional. Conditions: read-out: IC50_Mean. The source holds these as a separate data set.
Assay [5] has as its target T2, Corticotropin-releasing factor receptor 2/Corticotropin-releasing factor-binding protein (Homo sapiens, UniProt P24387+Q13324).
T2 sequence (Q13324 whole entry): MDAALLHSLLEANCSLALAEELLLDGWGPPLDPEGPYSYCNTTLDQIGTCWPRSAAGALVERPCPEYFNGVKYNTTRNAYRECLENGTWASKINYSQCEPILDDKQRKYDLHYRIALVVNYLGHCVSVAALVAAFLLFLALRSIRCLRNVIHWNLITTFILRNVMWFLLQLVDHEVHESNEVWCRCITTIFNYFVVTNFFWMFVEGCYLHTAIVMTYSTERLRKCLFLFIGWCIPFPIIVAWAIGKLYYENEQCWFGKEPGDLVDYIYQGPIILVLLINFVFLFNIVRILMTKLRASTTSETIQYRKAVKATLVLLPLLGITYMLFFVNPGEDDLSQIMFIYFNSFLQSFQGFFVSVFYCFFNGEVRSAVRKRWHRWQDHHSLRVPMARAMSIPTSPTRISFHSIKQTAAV
T2 sequence (P24387 whole entry): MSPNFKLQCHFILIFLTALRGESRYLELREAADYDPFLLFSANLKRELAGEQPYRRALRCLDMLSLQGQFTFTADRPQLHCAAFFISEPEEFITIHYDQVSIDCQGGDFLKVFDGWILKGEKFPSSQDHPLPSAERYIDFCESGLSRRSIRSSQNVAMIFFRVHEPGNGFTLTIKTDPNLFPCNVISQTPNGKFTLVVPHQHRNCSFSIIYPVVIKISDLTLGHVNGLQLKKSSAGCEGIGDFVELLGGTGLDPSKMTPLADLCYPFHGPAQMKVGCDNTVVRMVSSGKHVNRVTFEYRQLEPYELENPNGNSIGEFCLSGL
Briefly: Dose Response confirmation of uHTS hits for small molecule antagonists of the CRF-binding protein and CRF-R2 receptor complex. It is filed as functional. Conditions: read-out: IC50_Mean.

For assay [6], the target named is T2, Corticotropin-releasing factor receptor 2/Corticotropin-releasing factor-binding protein. Briefly: activators of CRF receptor 2 with binding protein – uHTS hits, confirmation (AID 602473). The format is functional. Conditions: read-out: EC50_Mean.
A short description of assay [7]: CRF-BP/CRF-R2 complex antagonists, dose response, cell-based, uHTS hits, 384-well (AID 651639). The format is functional, Homo sapiens. Conditions: read-out: IC50_Mean.
Assay [8] has as its target T3, Methionyl-tRNA synthetase, putative (Trypanosoma brucei brucei, UniProt Q38C91).
T3 sequence (Q38C91 whole entry): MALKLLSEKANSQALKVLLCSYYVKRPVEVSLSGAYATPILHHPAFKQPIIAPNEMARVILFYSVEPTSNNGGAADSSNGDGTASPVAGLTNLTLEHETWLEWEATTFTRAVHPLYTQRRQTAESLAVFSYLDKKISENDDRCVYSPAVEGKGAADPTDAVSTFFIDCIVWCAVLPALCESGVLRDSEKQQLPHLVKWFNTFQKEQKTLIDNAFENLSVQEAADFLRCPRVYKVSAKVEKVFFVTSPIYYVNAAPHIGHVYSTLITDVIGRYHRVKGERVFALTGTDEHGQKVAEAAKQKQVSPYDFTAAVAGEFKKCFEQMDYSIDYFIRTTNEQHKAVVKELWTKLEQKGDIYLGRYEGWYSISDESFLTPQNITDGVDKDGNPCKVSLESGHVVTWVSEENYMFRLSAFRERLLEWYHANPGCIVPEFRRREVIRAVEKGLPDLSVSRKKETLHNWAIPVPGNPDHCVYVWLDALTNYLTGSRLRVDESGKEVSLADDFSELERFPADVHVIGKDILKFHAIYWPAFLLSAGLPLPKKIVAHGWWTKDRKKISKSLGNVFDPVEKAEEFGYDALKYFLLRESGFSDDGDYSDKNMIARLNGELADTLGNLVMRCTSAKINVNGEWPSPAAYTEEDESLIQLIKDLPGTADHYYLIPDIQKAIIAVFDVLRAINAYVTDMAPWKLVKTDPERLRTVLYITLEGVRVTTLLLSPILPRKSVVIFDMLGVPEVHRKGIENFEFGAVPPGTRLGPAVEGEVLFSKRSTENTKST
The format is functional, Trypanosoma brucei brucei strain 927/4 GUTat10.1.

Assay [9] can be described thus: Counterscreen for inhibitors of Trypanosoma brucei methionyl tRNA synthetase (MetRS): Luminescence-based cell-based high throughput dose response assay to identify compounds that are cytotoxic to Jurkat human T lymphocyte cells. The format is functional. On the technique in general: The purpose of a counterscreen is to sort out artefacts and off-target activity.
For assay [10], the target named is T3, Methionyl-tRNA synthetase, putative. The format is functional, Trypanosoma brucei brucei strain 927/4 GUTat10.1. This is another data set of the same source.
The target in assay [11] is T4, Sentrin-specific protease 8 (Homo sapiens, UniProt Q96LD8).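 Further: luminescence read-out of SENP8 inhibition, dose-response confirmation following an ultra-high-throughput screen.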
T4 sequence (Q96LD8 whole entry): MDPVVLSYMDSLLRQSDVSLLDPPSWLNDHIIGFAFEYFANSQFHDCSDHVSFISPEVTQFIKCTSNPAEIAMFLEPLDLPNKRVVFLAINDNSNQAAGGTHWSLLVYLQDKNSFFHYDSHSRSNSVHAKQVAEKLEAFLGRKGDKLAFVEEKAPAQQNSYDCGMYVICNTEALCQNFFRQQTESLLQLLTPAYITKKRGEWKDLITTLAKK
The format is functional.

Assay [12] has as its target T5, Sentrin-specific protease 6 (Homo sapiens, UniProt Q9GZR1).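 Further: Luminescence-based dose-response confirmatory assay of SENP6 inhibition, following up an ultra-high-throughput screen.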
T5 sequence (Q9GZR1 whole entry): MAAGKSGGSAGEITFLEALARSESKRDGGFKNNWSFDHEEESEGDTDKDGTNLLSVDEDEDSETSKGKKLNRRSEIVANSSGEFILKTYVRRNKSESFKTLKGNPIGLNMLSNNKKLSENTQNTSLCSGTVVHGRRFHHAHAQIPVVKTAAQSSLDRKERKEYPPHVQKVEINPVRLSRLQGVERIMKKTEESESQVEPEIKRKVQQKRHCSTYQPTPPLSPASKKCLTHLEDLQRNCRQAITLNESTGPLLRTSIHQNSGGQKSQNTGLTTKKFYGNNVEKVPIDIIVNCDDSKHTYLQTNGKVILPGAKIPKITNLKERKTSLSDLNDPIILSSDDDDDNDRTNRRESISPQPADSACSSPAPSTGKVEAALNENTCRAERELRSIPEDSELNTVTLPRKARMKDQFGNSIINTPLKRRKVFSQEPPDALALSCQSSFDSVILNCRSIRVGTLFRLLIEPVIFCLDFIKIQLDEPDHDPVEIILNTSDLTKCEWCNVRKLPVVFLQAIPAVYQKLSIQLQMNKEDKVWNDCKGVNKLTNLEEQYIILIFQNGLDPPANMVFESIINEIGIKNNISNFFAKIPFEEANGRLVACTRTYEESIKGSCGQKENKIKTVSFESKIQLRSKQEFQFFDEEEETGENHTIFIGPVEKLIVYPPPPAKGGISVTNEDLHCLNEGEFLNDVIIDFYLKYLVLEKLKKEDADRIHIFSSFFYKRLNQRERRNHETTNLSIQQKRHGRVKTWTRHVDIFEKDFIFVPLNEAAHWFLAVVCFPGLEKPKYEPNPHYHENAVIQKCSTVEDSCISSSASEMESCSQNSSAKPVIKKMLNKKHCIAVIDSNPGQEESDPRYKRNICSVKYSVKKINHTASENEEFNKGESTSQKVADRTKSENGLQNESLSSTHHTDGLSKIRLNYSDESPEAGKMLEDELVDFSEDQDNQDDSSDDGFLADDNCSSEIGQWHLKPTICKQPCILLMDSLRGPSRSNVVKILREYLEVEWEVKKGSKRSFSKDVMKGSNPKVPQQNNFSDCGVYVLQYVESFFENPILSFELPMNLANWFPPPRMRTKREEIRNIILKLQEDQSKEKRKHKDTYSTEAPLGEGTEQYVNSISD
It is filed as functional.

Assay [13] has as its target T6, Caspase-3 (Homo sapiens, UniProt P42574).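 Further: Dose-response selectivity test against caspase-3 for candidate inhibitors of sentrin-specific proteases (SENPs).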
T6 sequence (P42574 whole entry): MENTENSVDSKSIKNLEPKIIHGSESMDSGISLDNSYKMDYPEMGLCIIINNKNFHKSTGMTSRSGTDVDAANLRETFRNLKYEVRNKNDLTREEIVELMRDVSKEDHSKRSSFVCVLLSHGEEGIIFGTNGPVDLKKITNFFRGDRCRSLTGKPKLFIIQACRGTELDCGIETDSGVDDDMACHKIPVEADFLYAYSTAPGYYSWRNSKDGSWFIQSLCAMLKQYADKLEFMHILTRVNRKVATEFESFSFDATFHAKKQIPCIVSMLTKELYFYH
It is filed as functional.

Assay [14] in a line: NIH-3T3 fibroblast cytotoxicity, dose response, cytotoxicity control, cell-based, fluorescence, Alamar Blue, secondary assay (AID 2327).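 Further: NIH-3T3 mouse fibroblasts cultured with fluconazole at 8 µg/mL.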 It is filed as functional. In general terms: Resazurin is reduced to fluorescent resorufin, in cell work by metabolically active cells.
Assay [15] in a line: C. albicans growth with fluconazole, confirmation, fluorescence, retest (AID 2467). The format is functional, cell-based.
Assay [16] concerns the target T7, Sentrin-specific protease 7 (Homo sapiens, UniProt Q9BQF6).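 Further: Luminescence-based dose-response confirmation of ultra-high-throughput screening hits, measuring inhibition of SENP7.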
T7 sequence (Q9BQF6 whole entry): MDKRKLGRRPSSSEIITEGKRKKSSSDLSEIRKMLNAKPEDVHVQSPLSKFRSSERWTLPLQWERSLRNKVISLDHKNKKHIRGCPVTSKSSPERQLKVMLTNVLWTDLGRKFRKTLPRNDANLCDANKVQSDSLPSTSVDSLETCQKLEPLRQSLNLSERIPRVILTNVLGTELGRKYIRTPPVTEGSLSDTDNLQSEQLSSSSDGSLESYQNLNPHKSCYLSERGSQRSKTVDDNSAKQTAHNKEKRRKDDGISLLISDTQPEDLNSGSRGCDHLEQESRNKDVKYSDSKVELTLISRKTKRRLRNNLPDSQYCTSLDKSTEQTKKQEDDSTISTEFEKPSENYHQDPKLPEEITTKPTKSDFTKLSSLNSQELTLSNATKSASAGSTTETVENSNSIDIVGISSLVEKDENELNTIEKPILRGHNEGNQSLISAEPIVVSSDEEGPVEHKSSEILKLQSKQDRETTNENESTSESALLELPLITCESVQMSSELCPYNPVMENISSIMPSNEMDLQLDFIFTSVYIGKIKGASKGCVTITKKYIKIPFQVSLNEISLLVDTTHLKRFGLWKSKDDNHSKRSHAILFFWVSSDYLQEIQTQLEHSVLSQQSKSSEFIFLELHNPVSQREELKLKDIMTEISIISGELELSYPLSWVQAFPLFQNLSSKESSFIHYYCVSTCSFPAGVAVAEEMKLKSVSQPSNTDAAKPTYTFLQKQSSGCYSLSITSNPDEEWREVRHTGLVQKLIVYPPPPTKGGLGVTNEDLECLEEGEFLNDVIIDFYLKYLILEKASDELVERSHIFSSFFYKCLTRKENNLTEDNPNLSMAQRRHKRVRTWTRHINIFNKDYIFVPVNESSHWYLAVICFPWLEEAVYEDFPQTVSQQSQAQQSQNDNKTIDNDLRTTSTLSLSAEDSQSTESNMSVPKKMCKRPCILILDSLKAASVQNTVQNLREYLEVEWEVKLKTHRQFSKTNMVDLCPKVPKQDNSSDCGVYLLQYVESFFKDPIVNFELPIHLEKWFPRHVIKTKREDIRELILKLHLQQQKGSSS
The format is functional.

Sequence of Mu-type opioid receptor (P35372 whole entry): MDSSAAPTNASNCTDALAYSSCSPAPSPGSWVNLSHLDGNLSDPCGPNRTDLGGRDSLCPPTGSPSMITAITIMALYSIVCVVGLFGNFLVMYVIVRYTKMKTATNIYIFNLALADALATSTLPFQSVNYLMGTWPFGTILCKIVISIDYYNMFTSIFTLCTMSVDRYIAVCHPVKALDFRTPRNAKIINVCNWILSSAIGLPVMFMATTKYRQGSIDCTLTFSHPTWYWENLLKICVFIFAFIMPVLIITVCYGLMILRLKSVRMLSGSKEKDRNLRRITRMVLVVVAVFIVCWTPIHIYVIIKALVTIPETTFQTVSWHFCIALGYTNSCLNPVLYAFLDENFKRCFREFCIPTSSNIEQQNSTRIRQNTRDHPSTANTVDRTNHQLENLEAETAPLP
Sequence of 5-hydroxytryptamine receptor 2A (P35363 whole entry): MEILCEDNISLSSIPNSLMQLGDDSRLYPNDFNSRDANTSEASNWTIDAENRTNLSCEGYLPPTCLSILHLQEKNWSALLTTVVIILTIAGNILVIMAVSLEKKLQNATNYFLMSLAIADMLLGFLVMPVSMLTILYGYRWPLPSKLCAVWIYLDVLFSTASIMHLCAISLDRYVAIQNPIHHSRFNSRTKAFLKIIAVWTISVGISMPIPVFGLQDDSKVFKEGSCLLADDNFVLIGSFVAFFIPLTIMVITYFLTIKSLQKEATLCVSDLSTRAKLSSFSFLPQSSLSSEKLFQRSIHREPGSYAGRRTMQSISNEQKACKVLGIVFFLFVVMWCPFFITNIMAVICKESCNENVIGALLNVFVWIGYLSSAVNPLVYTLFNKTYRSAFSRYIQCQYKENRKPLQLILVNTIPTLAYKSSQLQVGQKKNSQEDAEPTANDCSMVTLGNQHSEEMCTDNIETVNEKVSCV

On to `Fc1cccc(CN2CCN(c3ncccn3)CC2)c1`, for which the EC50 is 0.277 µM (active) in assay [1] and 92.5 µM (inactive) in [2].

On to `COc1ccc(CN2CCN(C(=O)c3ccco3)CC2)cc1OC`, for which the EC50 was 2.8 µM (active) in [1] and 92.5 µM (inactive) in [2].

Consider `COc1ccc(Nc2nc(-c3ccc4c(c3)NC(=O)CO4)cs2)cc1`, for which the values for the IC50 in assay [3] and in assay [4] were 54.9 µM (inactive) and 13.1 µM (active), respectively.

Turning to `O=C1CC(c2ccccc2)SC(N(c2ccccc2)c2ccccc2)=N1` (stereo unspecified), the IC50 was 7.25 µM (active) in assay [5] and > 20 µM (inactive) in [7]. Besides, the EC50 in [6] is > 53 µM (inactive).

Consider `O=C(Cc1cccc(Cl)c1)Nc1ccc(Br)cc1`, for which the IC50 in assay [8] was 7.49 µM (active); in assay [9], 83.3 µM (inactive); in assay [10], 11.1 µM (inactive).

As for `Cc1nccc(O)c1Cc1c(Cl)cccc1Cl`, the IC50 in assay [3] is 2.34 µM (active); in assay [4], 11.5 µM (active).

Regarding `COc1ccc(NC(=O)CC2C(=O)N(C)C(=S)N2CCc2ccc(F)cc2)cc1` (stereo unspecified), the figures for the IC50 in assay [8], in [9] and in assay [10] were 6.36 µM (active), 63.3 µM (inactive) and 17.4 µM (inactive), respectively.

For the compound `Cc1ccc(SCC(=O)Nc2cc([N+](=O)[O-])ccc2O)cc1`, the IC50 in assay [11] was 31.3 µM (active); in assay [12] it was 25.6 µM (active); in assay [13], 17.9 µM (active); in assay [5], 2.34 µM (active); in assay [16], 29.3 µM (active); in assay [7] it was 13.5 µM (active). In addition, the figures for the EC50 in assay [6], in assay [14] and in [15] were 23.4 µM (active), > 150 µM (inconclusive) and 0.046 µM (active), respectively.
